Results published in ChEMBL document CHEMBL4725399, “Galangin ameliorated pulmonary fibrosis in vivo and in vitro by regulating epithelial-mesenchymal transition” (Bioorg Med Chem, 2020).
Active and inactive are the calls of the source. No cut-off for these calls is given here.

What was measured:
Mus musculus [1] = experiment: Antifibrotic activity in C57BL/6 mouse model of bleomycin-induced lung fibrosis assessed as inhibition of pathological changes by measuring collagen deposition in lung tissue at 25 to 50 mg/kg dosed via oral gavage for 14 days by H and E staining-based histopathological analysis; assay type: functional, organism-based; conditions: dose mg/kg 25-50, time 14.0 day
Mus musculus [2] = experiment: Antifibrotic activity in C57BL/6 mouse model of bleomycin-induced lung fibrosis assessed as reduction in CD8+CD69+ T-cells at 50 mg/kg dosed via oral gavage for 14 days by flow cytometry analysis; assay type: functional, organism-based; conditions: time 14.0 day
NIH3T3 [3] = experiment: Antifibrotic activity in mouse NIH3T3 cells assessed as decrease in TGF-beta1 induced MMP-9 protein expression at 40 uM after 24 hrs by Western blotting analysis; assay type: functional, cell-based
Mus musculus [4] = experiment: Antifibrotic activity in C57BL/6 mouse model of bleomycin-induced lung fibrosis assessed as inhibition of pathological changes by measuring inflammatory infiltration in lung tissue at 25 to 50 mg/kg dosed via oral gavage for 14 days by H and E staining-based histopathological analysis; assay type: functional, organism-based; conditions: dose mg/kg 25-50, time 14.0 day
NIH3T3 [5] = experiment: Antifibrotic activity in mouse NIH3T3 cells assessed as up regulation of TGF-beta1 inhibited E-cadherin protein expression at 40 uM after 24 hrs by Western blotting analysis; assay type: functional, cell-based
A549 [6] = experiment: Up regulation of E-cadherin level in TGF-beta-stimulated human A549 cells at 50 uM by Western blot analysis; assay type: functional, cell-based; conditions: time 24.0 hrs
Mus musculus [7] = experiment: Antifibrotic activity in C57BL/6 mouse model of bleomycin-induced lung fibrosis assessed as reduction in CD8+CD69+ T-cells at 25 mg/kg dosed via oral gavage for 14 days by flow cytometry analysis; assay type: functional, organism-based; conditions: time 14.0 day
Mus musculus [8] = experiment: Antifibrotic activity in C57BL/6 mouse model of bleomycin-induced lung fibrosis assessed as reduction in CD4+CD69+ T-cells at 50 mg/kg dosed via oral gavage for 14 days by flow cytometry analysis; assay type: functional, organism-based; conditions: time 14.0 day
A549 [9] = experiment: Down regulation of vimentin protein expression in human A549 cells at 50 uM by Western blotting analysis; assay type: functional, cell-based; conditions: time 24.0 hrs
Mus musculus [10] = experiment: Antifibrotic activity in C57BL/6 mouse model of bleomycin-induced lung fibrosis assessed as inhibition of pathological changes by measuring collagen deposition in lung tissue at 25 to 50 mg/kg dosed via oral gavage for 14 days by Masson's trichrome staining-based histopathological analysis; assay type: functional, organism-based; conditions: dose mg/kg 25-50, time 14.0 day
Mus musculus [11] = experiment: Antifibrotic activity in bleomycin-induced C57BL/6 mouse model of lung fibrosis assessed as reduction in Ashcroft score at 25 to 50 mg/kg dosed via oral gavage for 14 days by H and E and Masson's trichrome staining based histopathological analysis; assay type: functional, organism-based; conditions: dose mg/kg 25-50, time 14.0 day
A549 [12] = experiment: Cytotoxicity against human A549 cells assessed as reduction in cell viability after 24 to 72 hrs by MTT assay; assay type: functional, cell-based; conditions: time hrs 24-72
Mus musculus [13] = experiment: Antifibrotic activity in C57BL/6 mouse model of bleomycin-induced lung fibrosis assessed as reduction in weight loss at 50 mg/kg dosed via oral gavage and measured for 7 to 14 days; assay type: functional, organism-based; conditions: time day 7-14
Mus musculus [14] = experiment: Antifibrotic activity in bleomycin-induced C57BL/6 mouse model of lung fibrosis assessed as reduction in fibroblast differentiation by measuring alpha-SMA at 25 to 50 mg/kg dosed via oral gavage for 14 days by measuring reduction in alpha-SMA protein expression by immunohistochemical analysis; assay type: functional, organism-based; conditions: dose mg/kg 25-50, time 14.0 day
NIH3T3 [15] = experiment: Cytotoxicity against mouse NIH3T3 cells assessed as reduction in cell viability after 24 to 72 hrs by MTT assay; assay type: cell-based; conditions: time 24-72 hrs
A549 [16] = experiment: Inhibition of cell migration in TGF-beta-stimulated human A549 cells at 50 uM after 24 hrs by optical microscopic based wound healing assay; assay type: functional
Mus musculus [17] = experiment: Antifibrotic activity in po dosed C57BL/6 mouse model of bleomycin-induced lung fibrosis assessed as reduction in weight loss after 7 to 14 days; assay type: functional, organism-based; conditions: dose mg/kg 25-50, time day 7-14
Mus musculus [18] = experiment: Inhibition of epithelial-mesenchymal transition in C57BL/6 mouse model of bleomycin-induced lung fibrosis assessed as decrease in alpha-SMA protein expression in lung tissue at 25 to 50 mg/kg dosed via oral gavage for 14 days by Western blotting analysis; assay type: functional, organism-based; conditions: dose mg/kg 25-50, time 14.0 day
Mus musculus [19] = experiment: Inhibition of epithelial-mesenchymal transition in C57BL/6 mouse model of bleomycin-induced lung fibrosis assessed as increase in E-cadherin protein expression in lung tissue at 25 to 50 mg/kg dosed via oral gavage for 14 days by Western blotting analysis; assay type: functional, organism-based; conditions: dose mg/kg 25-50, time 14.0 day
Mus musculus [20] = experiment: Antifibrotic activity in C57BL/6 mouse model of bleomycin-induced lung fibrosis assessed as reduction in weight loss at 25 mg/kg dosed via oral gavage and measured for 7 to 14 days; assay type: functional, organism-based; conditions: time day 7-14
NIH3T3 [21] = experiment: Antifibrotic activity in mouse NIH3T3 cells assessed as reduction in TGF-beta1 induced myofibroblast differentiation by measuring reduction in alpha-SMA protein expression at 40 uM after 24 hrs by immunofluorescence staining analysis; assay type: functional, cell-based
A549 [22] = experiment: Antimigratory activity in human A549 cells assessed as inhibition of TGF-beta1 induced epithelial-mesenchymal transition at 50 uM pretreated with TGF-beta1 for 1 hr followed by compound addition and measured after 24 hrs by scratch wound healing based microscopic analysis; assay type: functional, cell-based
Mus musculus [23] = experiment: Antifibrotic activity in C57BL/6 mouse model of bleomycin-induced lung fibrosis assessed as reduction in CD4+CD69+ T-cells at 25 mg/kg dosed via oral gavage for 14 days by flow cytometry analysis; assay type: functional, organism-based; conditions: dose 25.0 […], time 14.0 day
Mus musculus [24] = experiment: Antifibrotic activity in C57BL/6 mouse model of bleomycin-induced lung fibrosis assessed as reduction in dendritic cells at 50 mg/kg dosed via oral gavage for 14 days by flow cytometry analysis; assay type: functional, organism-based; conditions: time 14.0 day
Mus musculus [25] = experiment: Antifibrotic activity in C57BL/6 mouse model of bleomycin-induced lung fibrosis assessed as reduction in dendritic cells at 25 mg/kg dosed via oral gavage for 14 days by flow cytometry analysis; assay type: functional, organism-based; conditions: time 14.0 day
NIH3T3 [26] = experiment: Antifibrotic activity in mouse NIH3T3 cells assessed as decrease in TGF-beta1 induced alpha-SMA protein expression at 40 uM after 24 hrs by Western blotting analysis; assay type: functional, cell-based
A549 [27] = experiment: Down regulation of alpha-SMA protein expression in human A549 cells at 50 uM by Western blotting analysis; assay type: functional, cell-based; conditions: time 24.0 hrs
Mus musculus [28] = experiment: Inhibition of epithelial-mesenchymal transition in C57BL/6 mouse model of bleomycin-induced lung fibrosis assessed as decrease in vimentin protein expression in lung tissue at 25 to 50 mg/kg dosed via oral gavage for 14 days by Western blotting analysis; assay type: functional, organism-based; conditions: dose mg/kg 25-50, time 14.0 day
Mus musculus [29] = experiment: Antifibrotic activity in C57BL/6 mouse model of bleomycin-induced lung fibrosis assessed as inhibition of pathological changes by measuring inflammatory infiltration in lung tissue at 25 to 50 mg/kg dosed via oral gavage for 14 days by Masson's trichrome staining-based histopathological analysis; assay type: functional, organism-based; conditions: dose mg/kg 25-50, time 14.0 day

## O=c1c(O)c(-c2ccccc2)oc2cc(O)cc(O)c12 [GALANGIN]
Mus musculus [1]
  Activity: Active
Mus musculus [2]
  Activity: Active
NIH3T3 [3]
  Activity: Active
Mus musculus [4]
  Activity: Active
NIH3T3 [5]
  Activity: Active
A549 [6]
  Activity: Active
Mus musculus [7]
  Activity: inactive
Mus musculus [8]
  Activity: Active
A549 [9]
  Activity: Active
Mus musculus [10]
  Activity: Active
Mus musculus [11]
  Activity: Active
A549 [12]
  Activity: Active
Mus musculus [13]
  Activity: Active
Mus musculus [14]
  Activity: Active
NIH3T3 [15]
  Activity: Toxic
A549 [16]
  inhibition: Active
Mus musculus [17]
  Activity: Dose-dependent effect
Mus musculus [18]
  Activity: Active
Mus musculus [19]
  Activity: Active
Mus musculus [20]
  Activity: inactive
NIH3T3 [21]
  Activity: Active
A549 [22]
  Activity: Active
Mus musculus [23]
  Activity: inactive
Mus musculus [24]
  Activity: Active
Mus musculus [25]
  Activity: inactive
NIH3T3 [26]
  Activity: Active
A549 [27]
  Activity: Active
Mus musculus [28]
  Activity: Active
Mus musculus [29]
  Activity: Active
